# Measurements published in patent US20030087906A1, “NITROGEN SUBSTITUTED BIARYL PURINE DERIVATIVES AS POTENT ANTIPROLIFERATIVE AGENTS” (priority 2001, published 2003).
# Columns and labels:
# MCF7 = assay: NCI 60-cell line growth inhibition assay; assay type: cell-based; conditions: Homo sapiens; MCF7 (Breast)
# NCI/ADR-RES = assay: NCI 60-cell line growth inhibition assay; assay type: cell-based; conditions: Homo sapiens; NCI/ADR-RES (Breast)
# SNB-75 = assay: NCI 60-cell line growth inhibition assay; assay type: cell-based; conditions: Homo sapiens; SNB-75 (CNS)
# HL-60(TB) = assay: NCI 60-cell line growth inhibition assay; assay type: cell-based; conditions: Homo sapiens; HL-60(TB) (Leukemia)
# TK-10 = assay: NCI 60-cell line growth inhibition assay; assay type: cell-based; conditions: Homo sapiens; TK-10 (Renal)
# HCT-15 = assay: NCI 60-cell line growth inhibition assay; assay type: cell-based; conditions: Homo sapiens; HCT-15 (Colon)
# EKVX = assay: NCI 60-cell line growth inhibition assay; assay type: cell-based; conditions: Homo sapiens; EKVX (Non-Small Cell Lung)
# HS 578T = assay: NCI 60-cell line growth inhibition assay; assay type: cell-based; conditions: Homo sapiens; HS 578T (Breast)
# SK-OV-3 = assay: NCI 60-cell line growth inhibition assay; assay type: cell-based; conditions: Homo sapiens; SK-OV-3 (Ovarian)
# UACC-62 = assay: NCI 60-cell line growth inhibition assay; assay type: cell-based; conditions: Homo sapiens; UACC-62 (Melanoma)
# KM12 = assay: NCI 60-cell line growth inhibition assay; assay type: cell-based; conditions: Homo sapiens; KM12 (Colon)
# SN12C = assay: NCI 60-cell line growth inhibition assay; assay type: cell-based; conditions: Homo sapiens; SN12C (Renal)
# ACHN = assay: NCI 60-cell line growth inhibition assay; assay type: cell-based; conditions: Homo sapiens; ACHN (Renal)
# MOLT-4 = assay: NCI 60-cell line growth inhibition assay; assay type: cell-based; conditions: Homo sapiens; MOLT-4 (Leukemia)
# CCRF-CEM = assay: NCI 60-cell line growth inhibition assay; assay type: cell-based; conditions: Homo sapiens; CCRF-CEM (Leukemia)
# COLO 205 = assay: NCI 60-cell line growth inhibition assay; assay type: cell-based; conditions: Homo sapiens; COLO 205 (Colon)
# UO-31 = assay: NCI 60-cell line growth inhibition assay; assay type: cell-based; conditions: Homo sapiens; UO-31 (Renal)
# NCI-H23 = assay: NCI 60-cell line growth inhibition assay; assay type: cell-based; conditions: Homo sapiens; NCI-H23 (Non-Small Cell Lung)
# [1] = test system: Tumor Cells in Hollow Fibers; assay: NCI Hollow Fiber Assay (in vivo evaluation)
# CAKI-1 = assay: NCI 60-cell line growth inhibition assay; assay type: cell-based; conditions: Homo sapiens; CAKI-1 (Renal)
# MDA-MB-435 = assay: NCI 60-cell line growth inhibition assay; assay type: cell-based; conditions: Homo sapiens; MDA-MB-435 (Breast)
# MDA-N = assay: NCI 60-cell line growth inhibition assay; assay type: cell-based; conditions: Homo sapiens; MDA-N (Breast)
# NCI-H522 = assay: NCI 60-cell line growth inhibition assay; assay type: cell-based; conditions: Homo sapiens; NCI-H522 (Non-Small Cell Lung)
# IGROV1 = assay: NCI 60-cell line growth inhibition assay; assay type: cell-based; conditions: Homo sapiens, IGROV-1; IGROV1 (Ovarian)
# OVCAR-8 = assay: NCI 60-cell line growth inhibition assay; assay type: cell-based; conditions: Homo sapiens; OVCAR-8 (Ovarian)
# BT-549 = assay: NCI 60-cell line growth inhibition assay; assay type: cell-based; conditions: Homo sapiens; BT-549 (Breast)
# T-47D = assay: NCI 60-cell line growth inhibition assay; assay type: cell-based; conditions: Homo sapiens, T47D; T-47D (Breast)
# NCI-H322M = assay: NCI 60-cell line growth inhibition assay; assay type: cell-based; conditions: Homo sapiens; NCI-H322M (Non-Small Cell Lung)
# SK-MEL-5 = assay: NCI 60-cell line growth inhibition assay; assay type: cell-based; conditions: Homo sapiens; SK-MEL-5 (Melanoma)
# SF-295 = assay: NCI 60-cell line growth inhibition assay; assay type: cell-based; conditions: Homo sapiens; SF-295 (CNS)
# HOP-62 = assay: NCI 60-cell line growth inhibition assay; assay type: cell-based; conditions: Homo sapiens; HOP-62 (Non-Small Cell Lung)
# SF-268 = assay: NCI 60-cell line growth inhibition assay; assay type: cell-based; conditions: Homo sapiens; SF-268 (CNS)
# OVCAR-5 = assay: NCI 60-cell line growth inhibition assay; assay type: cell-based; conditions: Homo sapiens; OVCAR-5 (Ovarian)
# RPMI-8226 = assay: NCI 60-cell line growth inhibition assay; assay type: cell-based; conditions: Homo sapiens; RPMI-8226 (Leukemia)
# RXF 393 = assay: NCI 60-cell line growth inhibition assay; assay type: cell-based; conditions: Homo sapiens; RXF 393 (Renal)
# MALME-3M = assay: NCI 60-cell line growth inhibition assay; assay type: cell-based; conditions: Homo sapiens; MALME-3M (Melanoma)
# PC-3 = assay: NCI 60-cell line growth inhibition assay; assay type: cell-based; conditions: Homo sapiens; PC-3 (Prostate)
# SNB-19 = assay: NCI 60-cell line growth inhibition assay; assay type: cell-based; conditions: Homo sapiens; SNB-19 (CNS)
# DU-145 = assay: NCI 60-cell line growth inhibition assay; assay type: cell-based; conditions: Homo sapiens; DU-145 (Prostate)
# SK-MEL-2 = assay: NCI 60-cell line growth inhibition assay; assay type: cell-based; conditions: Homo sapiens; SK-MEL-2 (Melanoma)
# NCI-H460 = assay: NCI 60-cell line growth inhibition assay; assay type: cell-based; conditions: Homo sapiens; NCI-H460 (Non-Small Cell Lung)
smiles,measurement,setting,value
CC(=O)N[C@H]1CC[C@H](Nc2nc(NCc3ccc(-c4ccccn4)cc3)c3ncn(C(C)C)c3n2)CC1 [Compound 79],GI50,MCF7,< 0.01 µM
same,GI50,NCI/ADR-RES,0.86 µM
same,GI50,SNB-75,< 0.01 µM
same,GI50,HL-60(TB),< 0.01 µM
same,GI50,TK-10,< 0.01 µM
same,GI50,HCT-15,< 0.01 µM
same,GI50,EKVX,< 0.01 µM
same,GI50,HS 578T,< 0.01 µM
same,GI50,SK-OV-3,< 0.01 µM
same,GI50,UACC-62,< 0.01 µM
same,GI50,KM12,< 0.01 µM
same,GI50,SN12C,< 0.01 µM
same,GI50,ACHN,< 0.01 µM
same,GI50,MOLT-4,< 0.01 µM
same,GI50,CCRF-CEM,< 0.01 µM
same,GI50,COLO 205,< 0.01 µM
same,GI50,UO-31,< 0.01 µM
same,GI50,NCI-H23,< 0.01 µM
same,IP Score,[1]; IP fibers,26
same,SC score,[1]; SC fibers,6
same,GI50,CAKI-1,< 0.01 µM
same,GI50,MDA-MB-435,< 0.01 µM
same,GI50,MDA-N,< 0.01 µM
same,GI50,NCI-H522,< 0.01 µM
same,GI50,IGROV1,< 0.01 µM
same,GI50,OVCAR-8,< 0.01 µM
same,GI50,BT-549,< 0.01 µM
same,GI50,T-47D,< 0.01 µM
same,GI50,NCI-H322M,< 0.01 µM
same,GI50,SK-MEL-5,< 0.01 µM
same,GI50,SF-295,< 0.01 µM
same,GI50,HOP-62,< 0.01 µM
same,GI50,SF-268,< 0.01 µM
same,GI50,OVCAR-5,< 0.01 µM
same,GI50,RPMI-8226,< 0.01 µM
same,GI50,RXF 393,< 0.01 µM
same,GI50,MALME-3M,< 0.01 µM
same,GI50,PC-3,< 0.01 µM
same,GI50,SNB-19,< 0.01 µM
same,GI50,DU-145,< 0.01 µM
same,GI50,SK-MEL-2,< 0.01 µM
same,GI50,NCI-H460,< 0.01 µM
